Data as given in US9248124B2, “Use of inhibitors of IκB kinase for the treatment of cancer” (Millennium Pharmaceuticals, Inc., priority 2001, dated 2016).

Experiments:
Format in all cases: cell-based, human
[1] = test system: IκBα phosphorylation and degradation in MM.1S cells; test: Immunoblot of IκBα phosphorylation and degradation triggered by TNFα in MM.1S cells
Procedure: (§1) MM cells were cultured with PS-341 or compound 1; harvested; washed; and lysed using lysis buffer: 50 mM Tris-HCl (pH 7.4), 150 mM NaCl, 1% NP-40, 5 mM EDTA, 5 mM NaF, 2 mM Na3VO4, 1 mM PMSF, 5 μg/mL leupeptin, and 5 μg/mL aprotinin. For detection of phospho-IκBα, IκBα, phospho-MAPK, phospho-STAT3, ERK2 or alpha-tubulin, cell lysates were subjected SDS-PAGE, transferred to PVDF membrane (Bio-Rad Laboratories, Hercules, Calif.), and immunoblotted with anti-phospho-IκBα, -IκBα, -phospho-MAPK, or -phospho-STAT3 Abs (Cell Signaling, Beverly, Mass.), and anti-alpha-tubulin (Sigma) Abs.
Inhibition of IκBα phosphorylation by compound 1 was assayed in MM.1S and patient MM cells triggered by TNFα. […] To study the dose-dependent effect of compound 1, MM.1S cells were pre-treated with 1.25-40 μM compound 1 for 90 min, and then stimulated by TNFα (5 ng/mL).
The effect of Dex, compound 1, PS-341 and/or IL-6 on TNFα induced phosphorylation of IκBα in MM.1S cells was next examined. […] In contrast compound 1, in the presence or absence of IL-6, inhibits phosphorylation of IκBα. Dex inhibits TNFα-induced degradation of IκBα, whereas IL-6 blocks this effect. Both PS-341 and compound 1 inhibit degradation of IκBα, in the presence or absence of IL-6.

[2] = test system: p42/44 MAPK phosphorylation; test: Immunoblot of IL-6 induced p42/44 MAPK phosphorylation in MM.1S cells; conditions: IL-6 50 ng/mL for 5 min, compound 1 10 μM 90 min, PS-341 5 μM 60 min, FIG. 5
Procedure: as §1

STAT3 phosphorylation = test: Immunoblot of IL-6 induced STAT3 phosphorylation in MM.1S cells; conditions: IL-6 50 ng/mL for 5 min, compound 1 10 μM 90 min, FIG. 5
Procedure: as §1

MM.1S cells [3] = test: DNA synthesis ([3H]-TdR uptake) in MM.1S cells with Dex, IL-6, Thal or IMiD3; conditions: 48 h
Procedure: (§2) Proliferation was measured as previously described (Hideshima et al., Blood 96:2943 (2000)). MM cells (3×10^4 cells/well) were incubated in 96-well culture plates (Costar, Cambridge, Mass.) in the presence of media, PS-341, compound 1 and/or Dex or recombinant human IL-6 (Genetics Institute, Cambridge, Mass.) for 48 h at 37° C. DNA synthesis was measured by [^3H]-thymidine ([^3H]-TdR, NEN Products, Boston, Mass.) uptake. Cells were pulsed with [^3H]TdR (0.5 μCi/well) during the last 8 h of 48 h cultures. All experiments were performed in triplicate.

[4] = test system: ICAM-1 expression on MM.1S and RPMI8226 cells; test: Flow cytometry of TNFα-induced ICAM-1 expression on MM cells; conditions: TNFα 5 ng/mL, compound 1 10 μM, 24 h, FIG. 10
Procedure: For cell cycle analysis, MM cells cultured for 24-48 h in compound 1 (10 μM), Dex (1 μM); IL-6 (20 ng/mL), or control media were harvested, washed with phosphate-buffered saline (PBS), fixed with 70% ethanol, and treated with 10 μg/mL of RNase (Roche Diagnostics Corp., Indianapolis, Ind.). Cells were then stained with propidium iodine (PI, Sigma) (5 μg/mL). For detection of ICAM-1 expression, MM cells cultured in TNFα (5 ng/mL) in the presence or absence of compound 1 (10 μM) were harvested, washed with PBS, and stained with mouse IgG isotype control or FITC-conjugated mouse anti-human CD54 Ab. Both cell cycle profile and ICAM-1 expression were determined using an Epics (Coulter Immunology, Hialeah, Fla.) flow cytometer, as in prior studies (Hideshima et al., Oncogene 20:4519 (2001)).

MM.1S cells [5] = test: Growth inhibition / viability by MTT assay in MM.1S cells with TNFα
Procedure: The inhibitory effect of PS-341 and compound 1 on MM growth was assessed by measuring 3-(4,5-dimethylthiazol-2-yl)-2,5-diphenyl […] bromide (MTT) dye absorbance of the cells. Cells from 48 h cultures were pulsed with […] of 5 mg/mL MTT to each well for the last 4 h of 48 h cultures, followed by 100 μL isopropanol containing 0.04N HCl. Absorbance was measured at 570 nm using a spectrophotometer (Molecular Devices Corp., Sunnyvale Calif.).

[6] = test system: MM.1S cells adherent to BMSCs; test: Paracrine MM.1S cell growth on BMSCs ([3H]-TdR uptake); conditions: 0.4-10 μM, 48 h, dose dependent; FIG. 12B
Procedure: as §2
To evaluate growth stimulation and signaling in MM cells adherent to BMSCs, 3×10^4 MM.1S cells were cultured in BMSC coated 96-well plates for 48 h, in the presence or absence of compound 1. DNA synthesis was measured as described above. The Duoset ELISA (R&D System) was used to measure IL-6 in supernatants of 48 h cultures of BMSCs with or without MM.1S cells, in the presence or absence of compound 1.

Q: For `O=C(Nc1cc(Cl)cc2c1[nH]c1cnccc12)c1cccnc1` [compound 1, N-(6-chloro-9H-β-carbolin-8-yl)-nicotinamide], which “TNFα-induced phosphorylation of IκBα” value ([1]; Dex 1 μM 18 h, PS-341 5 μM 60 min, compound 1 10 μM 90 min, presence or absence of IL-6, TNFα 5 ng/mL 5 min, FIG. 7) is on record?
A: Its value is “inhibits”.

Q: And the “TNFα-induced degradation of IκBα” value ([1]; Dex 1 μM 18 h, PS-341 5 μM 60 min, compound 1 10 μM 90 min, TNFα 5 ng/mL 5 min, FIG. 7)?
A: The value was “inhibit”.

Q: What about the “phosphorylation and degradation of IκBα” value ([1]; compound 1 pre-treatment 10 μM for 90 min, then TNFα 5 ng/mL, FIG. 1A) of the same compound?
A: The value was “completely blocked”.

Q: And the “concentration at which phosphorylation of IκBα was completely inhibited” value ([1]; pre-treated with 1.25-40 μM for 90 min, then TNFα 5 ng/mL, FIG. 1B)?
A: Its value is no less than 5 µM.

Q: What about the “p42/44 MAPK phosphorylation” value [2] of the same compound?
A: Its value is “does not inhibit”.

Q: And the STAT3 phosphorylation (STAT3 phosphorylation)?
A: The STAT3 phosphorylation was “does not inhibit”.

Q: What about the “inhibitory effect of IL-6 against IMiD3” value (MM.1S cells [3]; compound 1 10 μM, IL-6 20 ng/mL, FIG. 9) of the same compound?
A: The value was “neutralized”.

Q: And the “protective effect of IL-6 on Dex-induced growth inhibition” value (MM.1S cells [3]; compound 1 0.4-10 μM, Dex 0.1 μM, IL-6 50 ng/mL, FIG. 8C)?
A: Its value is “abrogated”.

Q: And the “constitutive and IL-6 induced DNA synthesis in MM.1S cells” value (MM.1S cells [3]; compound 1 1.5-12.5 μM, IL-6 0.5-50 ng/mL, dose dependent, FIG. 8B)?
A: Its value is “abrogated”.

Q: And the “effect of compound 1 on Dex inhibition of proliferation” value (MM.1S cells [3]; compound 1 1.5-50 μM with Dex, FIG. 8A)?
A: The value was “did not enhance”.

Q: What about the “TNFα-induced upregulation of ICAM-1 expression” value [4] of the same compound?
A: The value was “inhibits”.

Q: What about the inhibition at 10 µM (MM.1S cells [5]; Homo sapiens, MM1.S, TNFα 1 ng/mL in the presence of 10 μM compound 1, 48 h) of the same compound?
A: Its inhibition at 10 µM is 60%.

Q: What about the “viability of MM.1S cells (MTT assay)” value (MM.1S cells [5]; TNFα 0.2 and 1 ng/mL in the presence of compound 1 2.5-10 μM, 48 h, p<0.001, FIG. 11) of the same compound?
A: The value was “significantly decreased”.

Q: And the “increased MM.1S cell growth triggered by adherence to BMSCs” value [6]?
A: The value was “inhibits”.
